Results as given in patent US20240091169A1, “POL[…] FOR TREATING INFLAMMATORY DISEASES” (UNIVERSITY OF SOUTH CAROLINA, priority 2022, published 2024).
pIC50: −log10 of the molar value.

Key:
C26 CRC cells = test: CCK-8 cell viability of C26 CRC cells; type: cell-based; conditions: 24 hr, read-out: IC50, anti-proliferative activity against C26 CRC cells
Method: BMDMs were isolated as described above. On day 6 of maturation, BMDMs were subjected to 7 concentrations of PA to assess cell death: 0.001, 0.01, 0.1, 1.0, 5.0, 10.0, and 100.0 μM. On day 7 (i.e., 24 hr-post PA treatment), CCK-8 (Dojindo; Cat #CK04) assays were completed per manufacturer's instructions. C26 CRC cells were also subjected to these 7 concentrations of PA for 24 hr to assess cell death using CCK-8. Three independent experiments were carried out.

[1] = system: BMDMs cultured with C26 CM; test: Macrophage polarization of BMDMs cultured with C26 CM (flow cytometry); type: cell-based, C57BL/6 mice; conditions: 48 hr, PA vs VEH
Method: Bone marrow-derived macrophages (BMDMs) were isolated from healthy 10-14-week-old C57BL/6 male mice. Briefly, mice were euthanized by isoflurane overdose. Femurs were cleared of muscle and debris. The epiphyses of the femurs were cut and placed knee-down and spun down in a 1.5 mL tube. Bone marrow was collected and resuspended in complete DMEM (cDMEM; 10% FBS, 1% penicillin/streptomycin) and passed through two 100 μm strainers. Cells were plated on an untreated 10 cm dish in cDMEM and allowed to incubate at 37° C. for 4 hr. Adherent/mature monocytes and dendritic cells were discarded, while floating/immature monocytes were collected. Cells were subjected to RBC lysis and resuspended in bone marrow maintenance media (BMMM; 20% L929-conditioned media in cDMEM). Cells were then plated on surface-treated 6-well plates at a 250 k cells/well seeding density. On day 3, fresh BMMM was added. On day 5, media was aspirated and fresh BMMM was added. For M2 macrophage polarization experiments, 6-day mature macrophages were given either cDMEM+VEH, M2 media (cDMEM with 10 ng/mL IL-4)+VEH, or M2 media+1 μM PA. Cells were incubated for 24 hr. For C26 colon tumor conditioned media (C26 CM) experiments, 6-day mature macrophages were given either serum-free media (SFM)+VEH, 33% C26-conditioned media (C26 CM)+VEH, or 33% C26 CM+1, 2.5, or 5 μM PA. Cells were incubated for 48 hr. After incubation with these different treatments, cells were washed twice with PBS and incubated with 5 mM EDTA PBS at 4° C. for 20 min. Cells were then gently scraped and transferred into flow tubes, spun at 1600 rpm at 4° C. for 5 min, and washed in PBS before antibody staining. Cells were stained and analyzed for macrophages via flow cytometry as described above with the addition of analyzing macrophage phenotypes. From the CD11b^+CD68^+ macrophage population, macrophage phenotypes were determined based on CD206 and CD11c expression. CD206^−CD11c^− cells were identified as M0 macrophages; CD206^−CD11c^+ as M1 macrophages; CD206^+CD11c^− cells as M2 macrophages; CD206^+CD11c^+ as M1-M2 transitional macrophages. All cells were measured using a FACS Aria II (BD) and analyzed using FlowJo (BD Biosciences). Three independent experiments were carried out for each in vitro assessment.

[2] = system: BMDMs treated with C26 CM; test: Survival of BMDMs cultured with C26 tumor conditioned media; type: cell-based, C57BL/6 mice; conditions: 48 hr
Method: Bone marrow-derived macrophages (BMDMs) were isolated from healthy 10-14-week-old C57BL/6 male mice. Briefly, mice were euthanized by isoflurane overdose. Femurs were cleared of muscle and debris. The epiphyses of the femurs were cut and placed knee-down and spun down in a 1.5 mL tube. Bone marrow was collected and resuspended in complete DMEM (cDMEM; 10% FBS, 1% penicillin/streptomycin) and passed through two 100 μm strainers. Cells were plated on an untreated 10 cm dish in cDMEM and allowed to incubate at 37° C. for 4 hr. Adherent/mature monocytes and dendritic cells were discarded, while floating/immature monocytes were collected. Cells were subjected to RBC lysis and resuspended in bone marrow maintenance media (BMMM; 20% L929-conditioned media in cDMEM). Cells were then plated on surface-treated 6-well plates at a 250 k cells/well seeding density. On day 3, fresh BMMM was added. On day 5, media was aspirated and fresh BMMM was added. […] Cells were stained and analyzed for macrophages via flow cytometry as described above with the addition of analyzing macrophage phenotypes. From the CD11b^+CD68^+ macrophage population, macrophage phenotypes were determined based on CD206 and CD11c expression. […] All cells were measured using a FACS Aria II (BD) and analyzed using FlowJo (BD Biosciences). […]

AOM/DSS-induced CRC = test: AOM/DSS mouse model of colorectal cancer (CRC); type: in vivo, C57BL/6 mice
[3] = females, males, and sexes combined, vs VEH, p≤0.05
[4] = proximal colon (tumors intact) RT-qPCR, vs VEH, p≤0.05
[5] = proximal colon RT-qPCR, vs VEH, p≤0.05
[6] = proximal colon qRT-PCR, vs VEH, p≤0.05
[7] = removed tumors RT-PCR, vs VEH, p≤0.05

## C=CC(O)C#CC#CC/C=C\CCCCCCC (stereo in doubt) [PA, 3(R)-(9Z)-heptadeca-1,9-dien-4,6-diyn-3-ol]
C26 CRC cells
  pIC50: 6.00
[1]
  relative abundance of M0 macrophages: No significant differences
  relative abundance of M1-M2 macrophages: No significant differences
  relative abundance of M1 macrophages: No significant differences
[1]; p≤0.05
  relative abundance of pro-tumoral M2 macrophages: significantly reduced
[2]; 1 μM PA
  reduction of macrophage survival: 31.5%
[2]; 5 μM PA
  reduction of macrophage survival: 45.3%
AOM/DSS-induced CRC; 2.5 mg/kg p.o. 3x/week, 12 weeks, vs AOM/DSS+VEH, FIG. 1B
  survival: appears to improve survival, although non-significant
AOM/DSS-induced CRC; Alcian Blue, distal colon, no difference between CF and PA
  goblet cells per crypt: completely rescued
AOM/DSS-induced CRC; RT-qPCR, vs VEH, p≤0.05
  Foxp3 gene expression in tumors: decrease
AOM/DSS-induced CRC; after 12 weeks, vs VEH
  colonoscopy score: focal lesions: no significant difference
AOM/DSS-induced CRC; after 12 weeks, vs VEH, p=0.08
  colonoscopy score: perianal findings: no significant difference
AOM/DSS-induced CRC; after 12 weeks, vs VEH, p≤0.05
  colonoscopy score: inflammation: significant reductions
  colonoscopy score: intestinal bleeding: significant reductions
  colonoscopy score: transparency of the colonic wall: significant reduction (i.e., improvement)
  colonoscopy tumor score: significantly reduced
AOM/DSS-induced CRC; colons with tumors intact, flow cytometry, vs VEH, p≤0.05
  abundance of CD11b+CD68+ macrophages in colonic lamina propria: significantly decreased
AOM/DSS-induced CRC; distal colon, vs VEH
  submucosal invasion and destruction of the crypts (H&E): did not appear as severe
AOM/DSS-induced CRC; females and sexes combined, vs VEH, p≤0.05
  large tumors (>2 mm): significant reduction
AOM/DSS-induced CRC; [3]
  number of medium sized tumors (1-2 mm): significantly reduced
  total number of tumors: significantly reduced
AOM/DSS-induced CRC; flow cytometry, n=2-3/group, statistics not performed
  abundance of neutrophils in the colon: appeared to protect against the increased abundance
AOM/DSS-induced CRC; flow cytometry, increase with VEH vs CF, p≤0.05
  relative abundance of macrophages in colons following tumor removal: ameliorated
AOM/DSS-induced CRC; pan macrophage marker, n=3/group
  F4/80 immunofluorescence staining in colonic tumors: reduction in macrophages
AOM/DSS-induced CRC; [4]
  CD68 gene expression: significantly suppressed
  MSR-1 gene expression: significantly suppressed
  mannose receptor C type 1 (Mrc1) gene expression: significantly suppressed
AOM/DSS-induced CRC; [5]
  IL-1β gene expression: significant downregulation
  IL-6 gene expression: significant downregulation
  IL-10 gene expression: significantly downregulated
  IL-13 gene expression: significantly downregulated
  TGF-β1 gene expression: significantly downregulated
  neutrophil marker Ly6g gene expression: significantly downregulated
AOM/DSS-induced CRC; proximal colon qRT-PCR, vs VEH, p=0.08
  Muc1 gene expression: slightly but non-significantly reduced
AOM/DSS-induced CRC; [6]
  Muc2 gene expression: significantly increased
  occludin (OCLN) gene expression: upregulated
  tight junction protein 3 (TJP3) gene expression: upregulated
AOM/DSS-induced CRC; qRT-PCR, vs VEH, p=0.09
  gene expression of pro-apoptotic marker Bax in colonic tumors: increased, although non-significant
AOM/DSS-induced CRC; removed tumors RT-PCR, vs VEH, p=0.08
  TGF-01 gene expression in tumors: suppressed
AOM/DSS-induced CRC; [7]
  CD68 gene expression in tumors: significantly suppressed
  IL-6 gene expression in tumors: suppressed
  IL-13 gene expression in tumors: suppressed
AOM/DSS-induced CRC; sexes combined, reduction observed, p=0.08
  small tumors (≤1 mm): did not reach statistical significance
AOM/DSS-induced CRC; tumor-removed colons, flow cytometry, between VEH and PA
  colonic TCRβ+FoxP3+ T-regs: no difference
AOM/DSS-induced CRC; vs VEH, p≤0.05
  percentage of Ki67 positive cells in colonic tumors: significant decreased
  percentage of apoptotic cells (TUNEL) in colonic tumors: significant increase
AOM/DSS-induced CRC; weeks 1-3, 5-7 and 10-12, vs VEH, FIG. 1C
  overall symptom score (bodyweight loss, stool consistency, rectal bleeding): significantly suppressed
AOM/DSS-induced CRC; whole blood, end of study, PA vs VEH
  circulating lymphocytes: no difference between VEH- and PA-treated groups
AOM/DSS-induced CRC; whole blood, end of study, across groups
  total WBCs: no change
AOM/DSS-induced CRC; whole blood, end of study, increase with VEH vs CF, p≤0.05
  circulating monocytes: rescued
AOM/DSS-induced CRC; whole blood, end of study, p≤0.05
  neutrophil to lymphocyte ratio (NLR): decrease
AOM/DSS-induced CRC; whole blood, end of study, vs VEH, p≤0.05
  circulating neutrophils: ameliorate the significant increase
